The record followed here is PubChem BioAssay AID588495 (Sanford-Burnham Center for Chemical Genomics, 2011).

Values joined by “and” are separate entries in the source; they are usually repeats but may differ in a detail not shown here. Equal values may be shown once. Active and inactive are the calls of the source.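 Rule for the calls: active = mean EC50 of 20 µM or lower; inactive = the rest.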

A word on the EC50: it is the midpoint of the concentration-response curve.

The target in the experiment is Neurotensin receptor type 2 (Homo sapiens) (UniProt O95665). As to the kind of experiment: beta-arrestin recruitment via NTR2 activation – imaging, NTR2-U2OS cells, beta-arrestin GFP imaging, selectivity assay for NTR1 agonist project, SAR follow-up (AID 588495). Particulars: image-based GFP translocation. Background: Activated receptors often draw arrestin, which recruitment assays turn into a signal.
Sequence of Neurotensin receptor type 2 (Homo sapiens) (O95665 whole entry, looked up): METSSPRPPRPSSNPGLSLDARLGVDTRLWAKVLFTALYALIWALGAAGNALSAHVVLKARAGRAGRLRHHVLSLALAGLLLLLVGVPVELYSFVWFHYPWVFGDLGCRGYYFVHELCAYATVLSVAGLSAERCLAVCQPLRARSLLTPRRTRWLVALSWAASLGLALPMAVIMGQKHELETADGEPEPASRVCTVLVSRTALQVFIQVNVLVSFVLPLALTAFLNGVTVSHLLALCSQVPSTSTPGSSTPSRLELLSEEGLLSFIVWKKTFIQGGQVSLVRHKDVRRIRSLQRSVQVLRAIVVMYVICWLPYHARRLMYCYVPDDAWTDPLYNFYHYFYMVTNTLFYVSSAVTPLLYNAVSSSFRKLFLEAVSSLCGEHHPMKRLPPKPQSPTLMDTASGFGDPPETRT

Consider `Clc1ccccc1-n1ncc2c(N3CCN(c4ccccc4)CC3)ncnc21`, for which the EC50 was > 40 µM (inactive). For `Clc1ccc(-n2ncc3c(N4CCN(c5ccccc5)CC4)ncnc32)cc1` the value was > 40 µM (inactive). On to `COc1ccc(/C=N/Nc2nc(-c3ccc(S(=O)(=O)N(C)C)cc3)cs2)cc1OC`, for which the EC50 was > 40 µM (inactive). For `COc1cccc(OC)c1-c1nc(C(=O)N[C@@H](CC(C)C)C(=O)O)cn1-c1cccc2ccccc12` the value was > 40 µM (inactive).

Consider `COc1ccccc1-c1nc(C(=O)N[C@@H](CC(C)C)C(=O)O)cn1-c1ccncc1`, for which the EC50 is > 40 µM (inactive). Then `COc1cc2c3nnc(-c4ccc(Cl)cc4)c-3cn(Cc3ccccc3)c2cc1OC`, with 8.38 µM; and `CC(C)C[C@H](NC(=O)c1cn(-c2ccnc3cc(Cl)ccc23)c(-c2c(Cl)cccc2Cl)n1)C(=O)O`, with > 40 µM (inactive). For `COc1cc2c3nnc(-c4ccc(C)cc4)c-3cn(Cc3ccc(C)cc3)c2cc1OC` the value was 5.38 µM; for `COc1cc2c3nnc(-c4ccc(C)cc4)c-3cn(Cc3ccc(F)cc3)c2cc1OC`, 6.4 µM; for `COc1ccc(Cn2c(SCc3ccccc3)nc3cc(OC)c(OC)cc3c2=N)cc1Cl`, > 40 µM (inactive).

For the compound `Cc1ccc(-n2ncc3c(N4CCN(c5ccccc5Cl)CC4)ncnc32)c(C)c1`, the EC50 was > 40 µM (inactive).

Regarding `COc1cc2nc(SCc3ccncc3)n(Cc3cccc(C(F)(F)F)c3)c(=N)c2cc1OC`, the EC50 is > 40 µM (inactive). In the case of `Cc1cc(Cl)ccc1-n1ncc2c(N3CCN(c4ccccc4)CC3)ncnc21`, the EC50 is > 40 µM (inactive). For `COc1ccccc1-c1cc(C(=O)O)nn1-c1ccnc2cc(Cl)ccc12` the value was > 40 µM (inactive).

As for `CC(C)C[C@H](NC(=O)c1cn(-c2ccnc3ccccc23)c(-c2ccccc2)n1)C(=O)O`, the EC50 was > 40 µM (inactive).

In the case of `COc1ccc(-c2nc(C(=O)N[C@@H](CC(C)C)C(=O)O)cn2-c2ccnc3cc(Cl)ccc23)c(OC)c1`, the EC50 was > 40 µM (inactive). With `COc1cccc(OC)c1-c1cc(C(=O)O)nn1-c1ccnc2cc(Cl)ccc12`, the EC50 is > 40 µM (inactive). Then `COc1cc2c3nnc(-c4ccc(F)cc4)c-3cn(Cc3ccc(F)cc3)c2cc1OC`, with 9.69 µM; and `COc1cc2c3nnc(-c4ccc(F)cc4)c-3cn(Cc3ccccc3)c2cc1OC`, with 6.02 µM. `COc1cc2nc(-c3ccccc3)nc(N3CCN(c4ccccc4OC)CC3)c2cc1OC`: the EC50 is > 40 µM (inactive). For `COc1cccc(OC)c1-c1cc(C(=O)N[C@@H](CC(C)C)C(=O)OC(C)(C)C)nn1-c1ccnc2cc(Cl)ccc12` the value was > 40 µM (inactive); for `COc1cc2c3nnc(-c4ccc(F)cc4)c-3cn(Cc3cccc(C)c3)c2cc1OC`, 4.47 µM.

`Cc1ccc(-n2ncc3c(N4CCN(c5ccc(F)cc5)CC4)ncnc32)c(C)c1`: the EC50 was > 40 µM (inactive). Then `Cc1ccc(-n2ncc3c(N4CCN(c5ccccc5)CC4)ncnc32)cc1`, with > 40 µM (inactive); and `COc1cc2c3nnc(-c4ccc(Cl)cc4)c-3cn(Cc3ccc(F)cc3)c2cc1OC`, with 7.78 µM. Take `COc1cc2nc(C3CCC3)nc(N3CCN(c4ccccc4C)CC3)c2cc1OC`: the EC50 was > 40 µM (inactive).

Consider `COc1ccccc1-c1cc(C(=O)N[C@@H](CC(C)C)C(=O)O)nn1-c1ccnc2cc(Cl)ccc12`, for which the EC50 was > 40 µM (inactive).

Consider `COc1ccccc1N1CCN(c2ncnc3c2cnn3-c2ccc(C)cc2C)CC1`, for which the EC50 was > 40 µM (inactive). As for `c1ccc(Cn2cc3c(-c4ccccc4)nnc-3c3ccccc32)cc1`, the EC50 was > 40 µM (inactive).

Turning to `COc1cc2nc(C3CCC3)nc(N3CCN(c4ccccc4F)CC3)c2cc1OC`, the EC50 was > 40 µM (inactive). For `COc1cccc(OC)c1-c1nc(C(=O)N[C@@H](CC(C)C)C(=O)O)cn1-c1ccnc2ccccc12` the value was > 40 µM (inactive). As for `Cc1ccc(-n2ncc3c(N4CCN(c5ccccc5)CC4)ncnc32)c(C)c1`, the EC50 was > 40 µM (inactive). `COc1cccc(OC)c1-c1cc(C(=O)N[C@@H](CC(C)C)C(=O)O)nn1-c1ccnc2cc(Cl)ccc12`: the EC50 is > 40 µM (inactive). Then `COc1cc2c3nnc(-c4ccc(Cl)cc4)c-3cn(Cc3ccc(C)cc3)c2cc1OC`, with 19.9 µM; and `COc1cc2ncnc(N3CCN(c4ccccc4OC)CC3)c2cc1OC`, with > 40 µM (inactive). Take `CCCSc1nc2cc(OC)c(OC)cc2c(=N)n1Cc1cccc(C(F)(F)F)c1`: the EC50 was > 40 µM (inactive). Turning to `COc1ccc(-c2nnc3c4cc(OC)c(OC)cc4n(Cc4ccccc4)cc2-3)cc1`, the EC50 is > 40 µM (inactive). For `COc1ccc(/C=N/Nc2nc(-c3ccc(S(=O)(=O)N(C)C)cc3)cs2)cc1` the value was > 40 µM (inactive); for `CCOc1ccc(-c2nnc3c4cc(OC)c(OC)cc4n(Cc4ccc(F)cc4)cc2-3)cc1`, “inactive”; for `COc1cccc(OC)c1-c1nc(C(=O)N[C@@H](CC(C)C)C(=O)O)cn1-c1ccncc1`, > 40 µM (inactive). On to `Fc1ccc(-n2ncc3c(N4CCN(c5ccccc5)CC4)ncnc32)cc1`, for which the EC50 is > 40 µM (inactive). Then `O=C(O)c1nc(-c2ccnc3ccccc23)c(-c2ccccc2)s1`, with > 40 µM (inactive); and `COc1ccccc1-c1cc(C(=O)N[C@@H](CC(C)C)C(=O)OC(C)(C)C)nn1-c1ccnc2cc(Cl)ccc12`, with > 40 µM (inactive). Then `c1ccc(N2CCN(c3ncnc4c3cnn4-c3ccccc3)CC2)cc1`, with > 40 µM (inactive); and `CCOC(=O)c1cc(-c2c(OC)cccc2OC)n(-c2ccnc3cc(Cl)ccc23)n1`, with > 40 µM (inactive). Then `Cc1ccc(C)c(-n2ncc3c(N4CCN(c5ccccc5)CC4)ncnc32)c1`, with > 40 µM (inactive); and `COc1cccc2c(C(=O)N[C@@H](CC(C)C)C(=O)O)cn(-c3ccnc4ccccc34)c12`, with > 40 µM (inactive). With `COc1cc2c3nnc(-c4ccc(C)c(C)c4)c-3cn(Cc3ccc(F)cc3)c2cc1OC`, the EC50 was 4.38 µM. Then `COc1cccc(OC)c1-c1nc(C(=O)O)cn1-c1ccncc1`, with > 40 µM (inactive). For `COc1cc2nc(C3CCC3)nc(N3CCN(c4ccccc4)CC3)c2cc1OC` the value was > 40 µM (inactive); for `Clc1cccc(-n2ncc3c(N4CCN(c5ccccc5)CC4)ncnc32)c1`, > 40 µM (inactive). Then `COc1ccc(N2CCN(c3ncnc4c3cnn4-c3ccc(C)cc3C)CC2)cc1`, with > 40 µM (inactive); and `CCOc1cc2nc(-c3ccc(OC)c(OC)c3)nc(N3CCN(c4ccccc4)CC3)c2cc1OC`, with > 40 µM (inactive); and `O=S(=O)(c1ccc(-c2csc(N/N=C/c3ccco3)n2)cc1)N1CCOCC1`, with > 40 µM (inactive). In the case of `CCOc1cc2nc(-c3ccc(OC)c(OC)c3)nc(N3CCN(c4ccccc4F)CC3)c2cc1OC`, the EC50 is > 40 µM (inactive). Consider `COc1cc2nc(-c3ccccc3)nc(N3CCN(c4ccccc4)CC3)c2cc1OC`, for which the EC50 was > 40 µM (inactive). As for `CC(C)C[C@H](NC(=O)c1cn(-c2ccnc3cc(Cl)ccc23)c(-c2ccccc2)n1)C(=O)O`, the EC50 was > 40 µM (inactive). For `CN(C)S(=O)(=O)c1ccc(-c2csc(N/N=C/c3ccc(C(C)(C)C)cc3)n2)cc1` the value was > 40 µM (inactive); for `CN(C)S(=O)(=O)c1ccc(-c2csc(N/N=C/c3ccccc3)n2)cc1`, > 40 µM (inactive). Consider `CC(=O)c1ccc(N2CCN(c3ncnc4c3cnn4-c3ccc(C)cc3C)CC2)cc1`, for which the EC50 is > 40 µM (inactive). For `COc1cc2c3nnc(-c4ccc(F)cc4)c-3cn(Cc3ccc(C)cc3)c2cc1OC` the value was 4.14 µM and 3.32 µM; for `CCOc1ccc(-c2nnc3c4cc(OC)c(OC)cc4n(Cc4ccc(C)cc4)cc2-3)cc1`, > 40 µM (inactive). For `CC(C)C[C@H](NC(=O)c1cn(-c2ccnc3ccccc23)c2c(OCc3ccccc3)cccc12)C(=O)O` the value was > 40 µM (inactive); for `CN(C)S(=O)(=O)c1ccc(-c2csc(N/N=C/c3ccco3)n2)cc1`, > 40 µM (inactive); for `Cc1ccc(-n2ncc3c(N4CCN(c5ccc([N+](=O)[O-])cc5)CC4)ncnc32)c(C)c1`, > 40 µM (inactive). As for `Cc1ccc(Cn2cc3c(-c4ccc(F)cc4)nnc-3c3cc4c(cc32)OCO4)cc1`, the 50% effective concentration (EC50) was 15.3 µM.

As to `O=S(=O)(c1ccc(-c2csc(N/N=C/c3ccco3)n2)cc1)N1CCCC1`, the EC50 was > 40 µM (inactive). On to `COc1ccc(-n2ncc3c(N4CCN(c5ccccc5)CC4)ncnc32)cc1`, for which the EC50 was > 40 µM (inactive). For `CCOc1ccc(-c2nnc3c4cc(OC)c(OC)cc4n(Cc4ccccc4)cc2-3)cc1` the value was > 40 µM (inactive); for `COc1cc2c3nnc(-c4ccc(C)c(C)c4)c-3cn(Cc3ccc(C)cc3)c2cc1OC`, “inactive”.

Turning to `CCc1ccc(-c2nnc3c4cc(OC)c(OC)cc4n(Cc4ccccc4)cc2-3)cc1`, the EC50 was > 40 µM (inactive). For the compound `Cc1ccc(-n2ncc3c(N4CCN(c5ccccc5)CC4)ncnc32)cc1C`, the EC50 is > 40 µM (inactive). For `COc1ccc(-c2nnc3c4cc(OC)c(OC)cc4n(Cc4ccc(C)cc4)cc2-3)cc1` the value was 5.48 µM. For `CCc1ccc(-c2nnc3c4cc(OC)c(OC)cc4n(Cc4ccc(F)cc4)cc2-3)cc1` the value was “inactive”; for `COc1cccc(N2CCN(c3ncnc4c3cnn4-c3ccc(C)cc3C)CC2)c1`, > 40 µM (inactive); for `CC(C)C[C@H](NC(=O)c1nc(-c2ccncc2)c(-c2ccccc2)s1)C(=O)O`, > 40 µM (inactive). `Cc1ccc(Cn2cc3c(-c4ccc(F)cc4)nnc-3c3ccccc32)cc1`: the EC50 was > 40 µM (inactive). For `CCOc1cc2c(N3CCN(c4ccccc4OC)CC3)nc(-c3ccc(OC)c(OC)c3)nc2cc1OC` the value was > 40 µM (inactive); for `Cc1cccc(C)c1-c1nc(C(=O)N[C@@H](CC(C)C)C(=O)O)cn1-c1ccnc2cc(Cl)ccc12`, > 40 µM (inactive).
